Assay results published in US10590118B2, “Bicyclic heterocyclic derivatives as bromodomain inhibitors” (Orion Corporation, priority 2014, dated 2020).

Target: T1, Bet bromodomain protein (BRD4) (Homo sapiens, UniProt O60885)
T1 construct: made in house
Experiment: Bet bromodomain TR-FRET assay
Assay type: binding
Settings: 300 nM acetyl histone peptide substrate, results given as Group A/B/C
Protocol: In-Vitro Biochemical Data of bicyclic heterocyclic derivatives in time-resolved fluorescence resonance energy transfer (TR-FRET) assay.
The Bet brommodomain TR-FRET assay has been used to identify compounds that bind to bet bromodomain and prevent its interaction with acetylated histone peptides.
In the assay, optimized concentration of in-house Bet bromodomain protein (BRD4) and 300 nM of acetyl histone peptide substrate were diluted in assay buffer (50 mM HEPES, pH: 7.5, 50 mM NaCl, 500 μM CHAPS) and were added to the positive control and test control wells in a 384 well plate. Substrate control wells have 300 nM of acetyl histone peptide substrate diluted in assay buffer. Buffer blank wells were added with assay buffer. The reaction mixture was allowed for incubation at room temperature for 30 mins. Stock solutions of test compounds at 20 mM DMSO are prepared. Compounds are serially diluted and added to the test wells in 384-well polypropylene plates. The reaction mixture was further incubated for 30 mins at room temperature on a plate shaker. 2 nM of Europium labeled streptavidn and 10 nM of XL-665 labeled antibody diluted in detection buffer (50 mM HEPES, pH: 7.5, 50 mM NaCl, 500 μM CHAPS and 800 mM KF) were added to all the wells excluding the buffer blank wells. The reaction plate was incubated for additional 30 mins at room temperature on plate shaker. The plate was read in Perkin Elmer WALLAC 1420 Multilabel Counter Victor 3 (Ex: 340 nm Em: 615 and 665 nm). The amount of displacement of the peptide was measured as ratio of specific 665 nm energy transfer signal to 615 nm signals. The compounds IC50 was determined by fitting the dose response data to sigmoid curve fitting equation using Graph Pad Prism software V5.

SMILES	IC50 [nM]
COc1cc2c(cc1-c1c(C)noc1C)OCC(=O)N2C(C)c1ccc(Cl)cc1 (single isomer, unassigned) [Compound 33, 4-(1-(4-chlorophenyl)ethyl)-7-(3,5-dimethylisoxazol-4-yl)-6-methoxy-2H-benzo[b][1,4]oxazin-3(4H)-one]	1000 to 3000
Cc1noc(C)c1-c1cc2ccc(=O)n(Cc3ccccn3)c2cc1OCc1ccncc1 [Compound 83, 6-(3,5-dimethylisoxazol-4-yl)-1-(pyridin-2-ylmethyl)-7-(pyridin-4-ylmethoxy)quinolin-2(1H)-one]	≤ 1000
COc1cc2c(cc1-c1c(C)noc1C)OCC(=O)N2CC1CCNCC1 [Compound 60, 7-(3,5-dimethylisoxazol-4-yl)-6-methoxy-4-(piperidin-4-ylmethyl)-2H-benzo[b][1,4]oxazin-3(4H)-one]	> 3000
COc1cc2c(cc1-c1c(C)noc1C)cc(C1CCCCC1)c(=O)n2Cc1cccnc1 [Compound 69, 3-cyclohexyl-6-(3,5-dimethylisoxazol-4-yl)-7-methoxy-1-(pyridin-3-ylmethyl)quinolin-2(1H)-one]	≤ 1000
COc1cc2c(ccc(=O)n2Cc2ccc(-c3cnn(C)c3)cn2)cc1-c1c(C)noc1C [Compound 98, 6-(3,5-dimethylisoxazol-4-yl)-7-methoxy-1-((5-(1-methyl-1H-pyrazol-4-yl)pyridin-2-yl)methyl)quinolin-2(1H)-one]	≤ 1000
Cc1noc(C)c1-c1cc2ccc(=O)n(Cc3ccccn3)c2cc1OCCN1CCNCC1 [Compound 82, 6-(3,5-dimethylisoxazol-4-yl)-7-(2-(piperazin-1-yl)ethoxy)-1-(pyridin-2-ylmethyl)quinolin-2(1H)-one]	1000 to 3000
COc1cc2c(ccc(=O)n2CCN2CCOCC2)cc1-c1c(C)noc1C [Compound 38, 6-(3,5-dimethylisoxazol-4-yl)-7-methoxy-1-(2-morpholinoethyl)quinolin-2(1H)-one]	≤ 1000
COc1cc2c(cc1-c1c(C)noc1C)OCCN2C(C)c1ccc(Cl)cc1 (stereo not shown) [Compound 6, 4-(1-(4-chlorophenyl)ethyl)-7-(3,5-dimethylisoxazol-4-yl)-6-methoxy-3,4-dihydro-2H-benzo[b][1,4]oxazine]	> 3000
COc1cc2c(ccc(=O)n2Cc2ccccn2)cc1C1=C(C)C(=O)NC1=O [Compound 92, 3-(7-methoxy-2-oxo-1-(pyridin-2-ylmethyl)-1,2-dihydroquinolin-6-yl)-4-methyl-1H-pyrrole-2,5-dione]	> 3000
COc1cc2c(ccc(=O)n2Cc2ccccn2)cc1-n1c(C)c[nH]c1=O [Compound 91, 7-methoxy-6-(5-methyl-2-oxo-2,3-dihydro-1H-imidazol-1-yl)-1-(pyridin-2-ylmethyl)quinolin-2(1H)-one]	> 3000
CCC(=O)N1CCC(CN2C(=O)COc3cc(-c4c(C)noc4C)c(OC)cc32)CC1 [Compound 90, 7-(3,5-dimethylisoxazol-4-yl)-6-methoxy-4-((1-propionylpiperidin-4-yl)methyl)-2H-benzo[b][1,4]oxazin-3(4H)-one]	≤ 1000
COc1cc2c(cc1-c1c(C)noc1C)OCCN2Cc1ccc(Cl)cc1 [Compound 1, 4-(4-chlorobenzyl)-7-(3,5-dimethylisoxazol-4-yl)-6-methoxy-3,4-dihydro-2H-benzo[b][1,4]oxazine]	≤ 1000

The next lines start with the values.

IC50 [nM]	SMILES
≤ 1000	COc1cc2c(cc1-c1c(C)noc1C)cc(C)c(=O)n2Cc1ccc(Cl)cn1 [Compound 58, 1-((5-chloropyridin-2-yl)methyl)-6-(3,5-dimethylisoxazol-4-yl)-7-methoxy-3-methylquinolin-2(1H)-one]
1000 to 3000	COc1cc2c(cc1-c1c(C)noc1C)OCC(=O)N2C(C)c1cccnc1 (single isomer, unassigned) [Compound 25, 7-(3,5-dimethytisoxazol-4-yl)-6-methoxy-4-(1-(pyridin-3-yl)ethyl)-2H-benzo[b][1,4]oxazin-3(4H)-one]
≤ 1000	COc1cc2c(cc1-c1c(C)noc1C)c(C1CC1)cc(=O)n2Cc1ccccn1 [Compound 55, 4-cyclopropyl-6-(3,5-dimethytisoxazol-4-yl)-7-methoxy-1-(pyridin-2-ylmethyl)quinolin-2(1H)-one]
≤ 1000	COc1cc2c(ccc(=O)n2Cc2ccc(F)cn2)cc1-c1c(C)noc1C [Compound 45, 6-(3,5-dimethylisoxazol-4-yl)-1-((5-fluoropyridin-2-yl)methyl)-7-methoxyquinolin-2(1H)-one]
≤ 1000	COc1cc2c(cc1-c1c(C)noc1C)OC(C)(C)C(=O)N2Cc1cccnc1 [Compound 49, 7-(3,5-dimethylisoxazol-4-yl)-6-methoxy-2,2-dimethyl-4-(pyridin-3-ylmethyl)-2H-benzo[b][1,4]oxazin-3(4H)-one]
≤ 1000	COc1cc2c(cc1-c1c(C)noc1C)OCCN2Cc1ccccc1N [Compound 16, 2-((7-(3,5-dimethylisoxazol-4-yl)-6-methoxy-2H-benzo[b][1,4]oxazin-4(3H)-yl)methyl)aniline]
> 3000	COc1cc2c(cc1-c1c(C)noc1C)C(C)(C)CC(=O)N2Cc1ccccn1 [Compound 48, 6-(3,5-dimethylisoxazol-4-yl)-7-methoxy-4,4-dimethyl-1-(pyridin-2-ylmethyl)-3,4-dihydroquinolin-2(1H)-one]
> 3000	COc1cc2c(cc1-c1c(C)noc1C)OCC(=O)N2Cc1ccc(O)nc1 [Compound 70]
1000 to 3000	Cc1noc(C)c1-c1cc2ccc(=O)n(Cc3ccccn3)c2cc1OC(F)(F)F [Compound 85, 6-(3,5-dimethylisoxazol-4-yl)-1-(pyridin-2-ylmethyl)-7-(trifluoromethoxy)quinolin-2(1H)-one]
1000 to 3000	COc1cc2c(ccc(=O)n2Cc2ccc3ccccc3n2)cc1-c1c(C)noc1C [Compound 57, 6-(3,5-dimethylisoxazol-4-yl)-7-methoxy-1-(quinolin-2-ylmethyl)quinolin-2(1H)-one]
≤ 1000	Cc1noc(C)c1-c1cc2ccc(=O)n(Cc3ccccn3)c2cc1OCCCO [Compound 84, 6-(3,5-dimethylisoxazol-4-yl)-7-(3-hydroxypropoxy)-1-(pyridin-2-ylmethyl)quinolin-2(1H)-one]
1000 to 3000	COc1cc2c(cc1-c1c(C)noc1C)OCC(=O)N2C(C)c1ccccn1 (stereo not shown) [Compound 31]
≤ 1000	C=CCOc1cc2c(ccc(=O)n2Cc2ccccn2)cc1-c1c(C)noc1C [Compound 79, 7-(allyloxy)-6-(3,5-dimethylisoxazol-4-yl)-1-(pyridin-2-ylmethyl)quinolin-2(1H)-one]
≤ 1000	COc1cc2c(ccc(=O)n2Cc2cnccn2)cc1-c1c(C)noc1C [Compound 8, 6-(3,5-dimethylisoxazol-4-yl)-7-methoxy-1-(pyrazin-3-ylmethyl)quinolin-2(1H)-one]
1000 to 3000	COc1cc2c(cc1-c1c(C)noc1C)C(=O)C(C)(C)C(=O)N2Cc1ccccn1 [Compound 51, 6-(3,5-dimethylisoxazol-4-yl)-7-methoxy-3,3-dimethyl-1-(pyridin-2-ylmethyl)quinoline-2,4(1H,3H)-dione]
≤ 1000	COc1cc2c(cc1-c1c(C)noc1C)cc(CO)c(=O)n2Cc1ccccn1 [Compound 96, 6-(3,5-dimethylisoxazol-4-yl)-3-(hydroxymethyl)-7-methoxy-1-(pyridin-2-ylmethyl)quinolin-2(1H)-one]
